From US10544113B2 (priority 2016, dated 2020)
Read-outs that look alike come from different tables or passages of the source.

Molecular target: mu-opioid receptor (MOR) (Homo sapiens (Human), UniProt P35372)
Test: cell-based
Conditions: for AUC: AUC of [Ca2+]i fluorescence, CHO-K1/MOR/Gα15 cells
[1] = EC50, CHO-K1/MOR/Gα15 cells, combined with a MOR antagonist
[2] = combined with a MOR antagonist, read-out: FLIPR Ca^2+ EC50

mu-opioid receptor (MOR), sequence (P35372 whole entry): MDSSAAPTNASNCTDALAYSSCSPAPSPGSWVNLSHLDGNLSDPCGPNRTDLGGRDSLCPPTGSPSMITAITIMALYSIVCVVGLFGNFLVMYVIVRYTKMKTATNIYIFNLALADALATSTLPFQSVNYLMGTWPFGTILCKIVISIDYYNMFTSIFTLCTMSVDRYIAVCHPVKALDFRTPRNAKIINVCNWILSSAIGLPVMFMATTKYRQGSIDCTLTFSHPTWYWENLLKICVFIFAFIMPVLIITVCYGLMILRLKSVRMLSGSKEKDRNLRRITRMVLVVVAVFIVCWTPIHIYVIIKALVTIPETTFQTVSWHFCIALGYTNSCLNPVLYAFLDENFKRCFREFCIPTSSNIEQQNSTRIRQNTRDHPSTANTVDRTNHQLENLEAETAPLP

Row | Compound | EC50 [1] | FLIPR Ca^2+ AUC (combined with a MOR antagonist) | EC50 [2] | AUC (combined with a MOR antagonist) | EC50 (FLIPR Ca^2+ EC50, combined with a MOR antagonist)
1 | Cc1cc(C(=O)NC2CCC2)ccc1N1C(=O)CSC1c1ccc(F)cc1 (stereo not shown) [Example 337] | < 10 µM | 8936 | 0.3 µM |  | 
2 | Cc1cc(C(=O)NC2CCCC2)ccc1N1C(=O)CSC1c1ccc(F)cc1 (stereo not shown) [Example 338] | < 10 µM | 9215 | 4.4 µM |  | 
3 | Cc1cc(C(=O)NC2CCCCC2)ccc1N1C(=O)CSC1c1ccc(F)cc1 (stereo not shown) [Example 339] |  | 7164 | 10 µM |  | 
4 | Cc1cc(C(=O)NCCN(C)C)ccc1N1C(=O)CSC1c1ccc(F)cc1 (stereo not shown) [Example 340] |  | 9445 | 10 µM |  | 
5 | CCN(CC)CCNC(=O)c1ccc(N2C(=O)CSC2c2ccc(F)cc2)c(C)c1 (stereo not shown) [Example 341] |  | 9983 | 3.3 µM |  | 
6 | Cc1cc(C(=O)NCCCN(C)C)ccc1N1C(=O)CSC1c1ccc(F)cc1 (stereo not shown) [Example 342] |  | 16741 | 3.3 µM |  | 
7 | Cc1cc(C(=O)NCCCN2CCOCC2)ccc1N1C(=O)CSC1c1ccc(F)cc1 (stereo not shown) [Example 347] |  | 12967 | 8.2 µM |  | 
8 | Cc1cc(C(=O)NCCCn2ccnc2)ccc1N1C(=O)CSC1c1ccc(F)cc1 (stereo not shown) [Example 348] |  | 13641 | 8.8 µM |  | 
9 | Cc1cc(C(=O)N2CC[C@@H](N(C)C)C2)ccc1N1C(=O)CSC1c1ccc(F)cc1 (stereo partly shown) [Example 349] |  | 11923 | 10 µM |  | 
10 | CCOC(=O)N1CCC(NC(=O)c2ccc(N3C(=O)CSC3c3ccc(F)cc3)c(C)c2)CC1 (stereo not shown) [Example 350] |  | 12979 | 4.4 µM |  | 
11 | Cc1cc(C(=O)N2CCC(N)C2)ccc1N1C(=O)CSC1c1ccc(F)cc1 (stereo not shown) [Example 351] |  | 11205 | 10 µM |  | 
12 | Cc1cc(C(=O)N2CCCC(O)C2)ccc1N1C(=O)CSC1c1ccc(F)cc1 (stereo not shown) [Example 353] |  | 11991 | 7.3 µM |  | 
13 | Cc1cc(C(=O)N2CC(O)C2)ccc1N1C(=O)CSC1c1ccc(F)cc1 (stereo not shown) [Example 354] |  | 14863 | 3.6 µM |  | 
14 | COC[C@@H]1CCCN1C(=O)c1ccc(N2C(=O)CSC2c2ccc(F)cc2)c(C)c1 (stereo partly shown) [Example 355] |  | 12691 | 10 µM |  | 
15 | COCCN(C)C(=O)c1ccc(N2C(=O)CSC2c2ccc(F)cc2)c(C)c1 (stereo not shown) [Example 356] |  | 9505 | 11.8 µM |  | 
16 | Cc1cc(C(=O)N2CCC(N)CC2)ccc1N1C(=O)CSC1c1ccc(F)cc1 (stereo not shown) [Example 357] | < 10 µM | 12663 | 10 µM |  | 
17 | Cc1cc(C(=O)Nc2ccccc2)ccc1N1C(=O)CSC1c1ccc(F)cc1 (stereo not shown) [Example 361] | < 10 µM | 6128 | 8.8 µM | more than 5000 | 
18 | COc1cccc(NC(=O)c2ccc(N3C(=O)CSC3c3ccc(F)cc3)c(C)c2)c1 (stereo not shown) [Example 368] | < 10 µM | 8915 | 6.7 µM | more than 5000 | 
19 | COc1ccccc1NC(=O)c1ccc(N2C(=O)CSC2c2ccc(F)cc2)c(C)c1 (stereo not shown) [Example 373] |  | 12223 | 13.6 µM | more than 5000 | 
20 | Cc1cc(C(=O)NCc2ccccc2)ccc1N1C(=O)CSC1c1ccc(F)cc1 (stereo not shown) [Example 374] |  | 6726 | 5.1 µM | more than 5000 | 
21 | Cc1cc(C(=O)NCc2ccc(Cl)cc2F)ccc1N1C(=O)CSC1c1ccc(F)cc1 (stereo not shown) [Example 375] |  | 4172 | 3.8 µM |  | 

Row | Compound | EC50 [1] | FLIPR Ca^2+ AUC (combined with a MOR antagonist) | EC50 [2] | AUC (combined with a MOR antagonist) | EC50 (FLIPR Ca^2+ EC50, combined with a MOR antagonist)
22 | Cc1cc(C(=O)NCc2cc(F)ccc2F)ccc1N1C(=O)CSC1c1ccc(F)cc1 (stereo not shown) [Example 376] |  | 8823 | 1 µM |  | 
23 | Cc1cc(C(=O)NCc2cccc(C(F)(F)F)c2)ccc1N1C(=O)CSC1c1ccc(F)cc1 (stereo not shown) [Example 377] |  | 12637 | 12.5 µM |  | 
24 | Cc1cc(C(=O)NCc2ccc(F)c(F)c2)ccc1N1C(=O)CSC1c1ccc(F)cc1 (stereo not shown) [Example 378] | < 10 µM | 15891 | 6.3 µM |  | 
25 | COc1cc(CNC(=O)c2ccc(N3C(=O)CSC3c3ccc(F)cc3)c(C)c2)cc(OC)c1 (stereo not shown) [Example 380] | < 10 µM | 10013 | 8.2 µM | more than 5000 | 
26 | Cc1cc(C(=O)NCc2cc(F)cc(F)c2)ccc1N1C(=O)CSC1c1ccc(F)cc1 (stereo not shown) [Example 381] | < 10 µM | 6035 | 8.2 µM | more than 5000 | 
27 | Cc1cc(C(=O)NCCc2ccccc2F)ccc1N1C(=O)CSC1c1ccc(F)cc1 (stereo not shown) [Example 383] |  | 5504 | 6.9 µM |  | 
28 | Cc1cc(C(=O)NCCc2cccc(F)c2)ccc1N1C(=O)CSC1c1ccc(F)cc1 (stereo not shown) [Example 385] |  | 7501 | 3.9 µM |  | 
29 | Cc1cc(C(=O)NCCc2cccc(Cl)c2)ccc1N1C(=O)CSC1c1ccc(F)cc1 (stereo not shown) [Example 386] |  | 5727 | 4.2 µM |  | 
30 | Cc1cc(C(=O)NCCc2ccc(F)cc2)ccc1N1C(=O)CSC1c1ccc(F)cc1 (stereo not shown) [Example 387] |  | 5770 | 4 µM |  | 
31 | Cc1cc(C(=O)NCCc2ccc(Cl)cc2)ccc1N1C(=O)CSC1c1ccc(F)cc1 (stereo not shown) [Example 388] |  | 2951 | 2 µM |  | 
32 | Cc1cc(C(=O)OCCOCCOC(=O)c2ccc(N3C(=O)CSC3c3ccc(F)cc3)c(C)c2)ccc1N1C(=O)CSC1c1ccc(F)cc1 (stereo not shown) [Example 390] |  | 7399 | 13.9 µM | more than 5000 | 
33 | Cc1noc(N2C(=O)CSC2c2ccc(F)cc2)c1C (stereo not shown) [Example 395] |  | 7107 | 12 µM | more than 5000 | 
34 | Cc1c(N2C(=O)CSC2c2cccc(F)c2)c(=O)n(-c2ccccc2)n1C (stereo not shown) [Example 404] |  | 7127 | 21.8 µM | more than 5000 | 
35 | Cc1c(N2C(=O)CSC2c2ccccc2F)c(=O)n(-c2ccccc2)n1C (stereo not shown) [Example 406] |  | 9974 | 31.2 µM | more than 5000 | 
36 | Cc1c(N2C(=O)CSC2c2ccccc2)c(=O)n(-c2ccccc2)n1C (stereo not shown) [Example 408] |  | 9281 | 12.7 µM | more than 5000 | 
37 | Cc1c(N2C(=O)CSC2c2ccc(F)cc2)c(=O)n(-c2ccccc2)n1C (stereo not shown) [Example 411] |  | 8099 | 20 µM | more than 5000 | 
38 | COC(=O)c1ccc(N2C(=O)CSC2c2ccoc2)c(C)c1 (stereo not shown) [Example 416] |  | 6514 | 11.7 µM | more than 5000 | 
39 | [2H]c1c([2H])c(C2SCC(=O)N2c2ccc(C(=O)O)cc2C)c([2H])c([2H])c1F (stereo not shown) [Example 579, 4-{2-[4-Fluoro-2,3,5,6-d4-phenyl]-4-oxo-1,3-thiazolidin-3-yl}-3-methylbenzoic acid] |  | 14761 | 1.93 µM |  | 
40 | [2H]c1c([2H])c(C2SCC(=O)N2c2ccc(C(=O)OCC)cc2C)c([2H])c([2H])c1F (stereo not shown) [Example 580, Ethyl 4-{2-[4-fluoro-2,3,5,6-d4-phenyl]-4-oxo-1,3-thiazolidin-3-yl}-3-methylbenzoate] |  | 14441 |  |  | 4.26 µM
41 | [2H]C1(c2ccc(F)cc2)SCC(=O)N1c1ccc(C(=O)O)cc1C (stereo not shown) [Example 581, 4-[2-(4-Fluorophenyl)-4-oxo-2-d1-1,3-thiazolidin-3-yl]-3-methylbenzoic acid] |  | 13703 | 3.31 µM |  | 
